The numbers were not newly measured in patent US20210000972A1, “NANOPARTICLES FOR SUSTAINED OPHTHALMIC DRUG DELIVERY AND METHODS OF USE” (2C TECH CORP., priority 2017, published 2021), which cites them from elsewhere.

Like-named read-outs stand apart in the source and are kept apart here.

Turning to `C[C@@H]1C[C@H]2[C@@H]3CCC4=CC(=O)C=C[C@]4(C)[C@@]3(F)[C@@H](O)C[C@]2(C)[C@@]1(O)C(=O)CO` [dexamethasone], for the setting “sustained release form (embedded in a lactic co-glycolic copolymer)”, the “duration of constant concentration” value is reported as “one”.
The term half-life denotes how long it takes for the measured level to halve. In the case of `O=C(O)P(=O)(O)O` [foscarnet], the half-life (intravitreal) was 12 h.
As to `CC1(C)O[C@@H]2C[C@H]3[C@@H]4CCC5=CC(=O)C=C[C@]5(C)[C@@]4(F)[C@@H](O)C[C@]3(C)[C@]2(C(=O)CO)O1` [triamcinolone acetonide], the half-life (intravitreal suspension, 4 mg) was 576 h. The “time the drug lasted” value (intravitreal suspension, the two doses administered (4 mg and 16 mg)) is given as 4 to 6 months.
For “Avastin: an antibody used for the treatment of macular edema”, for the setting “intravitreal antibody”, the half-life was 140 h and the time detectable is over 30 days. Moreover, the “systemic delivery after intravitreal administration” value (untreated contralateral eye) is reported as “found in the untreated contralateral eye”.
